# Laboratory results as given in paper PMC12495443, “Developing inhibitors of the guanosine triphosphate hydrolysis accelerating activity of Regulator of G protein Signaling-14 [drawing 1]” (The Journal of Biological Chemistry, 2025).
# Residue numbers refer to the chain shown, from its start. Entries after “also recorded” stand apart in the source; their conditions may differ.
# Tests used:
# [1] = target: T1, human RGS14 RGS-box (wild-type) (Homo sapiens, UniProt O43566); test: Transcreener GDP RGScreen fluorescence polarization assay of RGS14 RGS-box GAP activity on Gαi1(DM); type: biochemical; conditions: for IC50: wild-type RGS14 RGS-box GAP activity, Gαi1(DM), Transcreener GDP RGScreen, read-out: RGS14 pIC50 (converted)
# T1 construct: human RGS14 RGS-box (aa 46–195 of UniProt O43566); host or cells: E. coli
# T1 sequence (O43566 46-195): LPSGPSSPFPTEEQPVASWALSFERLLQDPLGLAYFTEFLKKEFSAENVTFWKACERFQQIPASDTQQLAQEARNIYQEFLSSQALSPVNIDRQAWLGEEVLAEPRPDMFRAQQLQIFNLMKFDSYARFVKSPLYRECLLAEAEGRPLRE
# In short: (§1)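 Steady-state GTP hydrolysis by rate-altered double point-mutant Gαi1 was read by Transcreener GDP fluorescence polarization, with GTP conversion kept below 10% of maximum input. The E. coli-expressed, N-terminal His6-tagged wild-type RGS-boxes were RGS12 aa 695–843 and RGS14 aa 46–195.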
# [2] = target: T2, cysteine-less RGS12 RGS-box protein (Homo sapiens, UniProt O14924, C701S/C748S/C775S/C831S); test: Transcreener GDP RGScreen assay with cysteine-less RGS12 RGS-box; type: biochemical; conditions: range given jointly for cysteine-less RGS14 and RGS12 proteins; read-out: estimated IC50, cysteine-less RGS12 RGS-box
# T2 construct: human RGS12 RGS-box (aa 695–843 of UniProt O14924); host or cells: E. coli
# T2 sequence (O14924 695-843 C701S/C748S/C775S/C831S): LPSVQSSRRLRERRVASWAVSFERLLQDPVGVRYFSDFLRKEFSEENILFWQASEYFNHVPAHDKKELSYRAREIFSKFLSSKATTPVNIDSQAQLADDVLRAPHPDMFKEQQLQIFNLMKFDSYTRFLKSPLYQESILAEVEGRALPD
# From the text: (§2) Given the earlier experience with screening hit CCG-4986 being a covalent modifier of RGS4 cysteine residues ([35]), we sought to exclude protein-thiol reactivity as a potential mechanism of action of the active compounds derived from the AtomNet virtual screening effort ([55]) and SAR campaign follow-ups. To address this possibility and screen out thiol-reactive hits, cysteine-lacking versions of recombinant proteins spanning the RGS-boxes of RGS14 and RGS12 were purified from E. coli cultures.
# Reagents and protocols for the fluorescence anisotropy-based Transcreener GDP RGScreen assay using a rate-altered, double point-mutant, recombinant Gαi1 protein have been extensively described previously ([43], [44]); reactions were always performed so that total GTP converted over the time course was consistently less than 10% of reaction maximum input. […] Open-reading frames (ORFs) encoding wild-type versions of the human RGS14 RGS-box (aa 46–195 of UniProt O43566) and human RGS12 RGS-box (aa 695–843 of UniProt O14924) were each sub-cloned in-frame with an N-terminal hexahistidine (His6) expression tag in the plasmid pET30a, expressed in E. coli cultures, and then purified by nickel-nitriloacetate (Ni-NTA) and size-exclusion (Superdex 200) column chromatographies by GenScript using previously described methods ([35]). […]
# [3] = target: T3, cysteine-less RGS14 RGS-box protein (Homo sapiens, UniProt O43566, C100S/C183S); test: Transcreener GDP RGScreen assay with cysteine-less RGS14 RGS-box; type: biochemical; conditions: range given jointly for cysteine-less RGS14 and RGS12 proteins; read-out: estimated IC50, cysteine-less RGS14 RGS-box
# T3 construct: human RGS14 RGS-box (aa 46–195 of UniProt O43566); host or cells: E. coli
# T3 sequence (O43566 46-195 C100S/C183S): T1 sequence (O43566 46-195) with C55S, C138S
# From the text: as §2
# Reagents and protocols for the fluorescence anisotropy-based Transcreener GDP RGScreen assay using a rate-altered, double point-mutant, recombinant Gαi1 protein have been extensively described previously ([43], [44]); reactions were always performed so that total GTP converted over the time course was consistently less than 10% of reaction maximum input. Specific methods for its application in assessing RGS14 and RGS12 GAP activity are summarized as follows. Open-reading frames (ORFs) encoding wild-type versions of the human RGS14 RGS-box (aa 46–195 of UniProt O43566) and human RGS12 RGS-box (aa 695–843 of UniProt O14924) were each sub-cloned in-frame with an N-terminal hexahistidine (His6) expression tag in the plasmid pET30a, expressed in E. coli cultures, and then purified by nickel-nitriloacetate (Ni-NTA) and size-exclusion (Superdex 200) column chromatographies by GenScript using previously described methods ([35]). […]
# Supplementary Figure S5. […] (A,B) Recombinant, cysteine residue-lacking (“-cys”) RGS14 RGS-box protein (panel A) and cysteine residue-lacking RGS12 RGS-box protein ([…]) were both observed, in a concentration-dependent fashion (indicated in ng/µL by color), to increase steady-state GDP production by 0.5 ng/µL Gai1(DM) protein in a 20 µL final reaction volume, as measured by the Transcreener® GDP-detection RGScreen™ assay and detected by the change in polarization (ΔmP) at each indicated time point (“enz” = Gai1(DM) protein a.k.a. […]
# [4] = target: T4, human RGS12 RGS-box (wild-type) (Homo sapiens, UniProt O14924); set-up: method as in earlier work; conditions: Transcreener GDP RGScreen; ref (8); cited from earlier work
# T4 construct: human RGS12 RGS-box (aa 695–843 of UniProt O14924); host or cells: E. coli
# T4 sequence (O14924 695-843): T2 sequence (O14924 695-843 C701S/C748S/C775S/C831S) with S7C, S54C, S81C, S137C
# [5] = target: T1, human RGS14 RGS-box (wild-type); set-up: method as in earlier work; conditions: Transcreener GDP RGScreen; ref (8); cited from earlier work
# [6] = target: T5, RGS14 RGS-box (GAP activity on wild-type Gαi1) (Homo sapiens, UniProt O43566); test: Single-turnover [γ-33P]GTP hydrolysis assay of RGS-box GAP activity; type: biochemical; conditions: wild-type Gαi1, concentration-dependent
# T5 sequence (O43566 67-184 limits assumed): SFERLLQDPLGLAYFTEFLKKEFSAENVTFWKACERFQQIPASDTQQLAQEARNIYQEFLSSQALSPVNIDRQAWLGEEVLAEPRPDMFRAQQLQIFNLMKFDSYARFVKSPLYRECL
# From the text: To further evaluate the functional activity of these triazolothiadiazine derivatives, and especially to eliminate concerns of misascribing GAP-inhibitory activity to potential assay interference, we tested two representative compounds—Z55660043 and Z55627844—in the gold-standard single-turnover radioactive GTP hydrolysis assay ([7], [58]) (Fig. 6).
# The single-turnover radiolabeled-GTP hydrolysis assay is the gold standard assay for RGS-box GAP activity, first described using [γ -^32P]GTP by Berman et al. ([7]) and recently modified for modern performance ([91], [92], [93], [94]) to use readily available [γ-^33P]GTP substrate and perchloric acid quenching. The assay was performed by first pre-loading wild-type (WT) Gα protein (i.e., 750 nM purified, recombinant, wild-type-sequence human Gαi1 protein) with a slight excess (1 μM) of [γ-^33P]GTP for 15 min at 30 °C. Assay initiation involved adding purified recombinant RGS protein previously pre-incubated for 30 min at 30 °C with a candidate inhibitor. […] Supernatant aliquots were then added to liquid scintillation fluid and [^33P]-Pi content (i.e., hydrolyzed GTP) was quantified with a scintillation counter with an appropriate β-transmission window.
# THP-1 cell line = test: Cytotoxicity assays (CytoTox-Glo, CytoTox 96); type: cell-based; conditions: THP-1 cells, overnight, CytoTox-Glo and CytoTox 96
# Procedure: To evaluate cellular toxicity of active compounds, we employed the immortalized human monocytic THP1-Dual cell line (InvivoGen) in two orthogonal cytotoxicity assays: ATP-dependent luminescence (CytoTox-Glo) and colorimetric lactate dehydrogenase (LDH) release (CytoTox 96). For each assay, compounds were serially diluted 2-fold starting at 250 μM and added to 96-well flat-bottom tissue culture plates (Thermo Scientific Nunc, Cat# 165306). THP1-Dual cells were then seeded at 20,000 to 30,000 cells per well in 100 μl RPMI 1640 media supplemented with 10% fetal bovine serum (Gibco). Plates were gently mixed and incubated overnight at 37 °C in a humidified 5% CO2 incubator. For the CytoTox-Glo assay (Promega, Cat# G9291), 50 μl of assay reagent was added to each well. Plates were mixed briefly, sealed, and incubated at room temperature for 15 min before reading luminescence on a TECAN Infinite M1000 Pro plate reader to quantify dead-cell signal. Subsequently, 50 μl of a digitonin-containing lysis solution was added to each well, followed by a second luminescence read after 15 min to assess total cell content. Percent cytotoxicity was calculated per manufacturer instructions. For the CytoTox 96 Non-Radioactive Cytotoxicity Assay (Promega, Cat# G1780), after overnight compound treatment, LDH release into the culture medium was measured by adding the provided substrate mix. Absorbance was read at 490 or 492 nm within 1 h of adding the stop solution. Assay optimization and data normalization were conducted according to the manufacturer’s technical manual.
# [7] = target: T4, human RGS12 RGS-box (wild-type); test: Transcreener GDP RGScreen fluorescence polarization assay of RGS12 RGS-box GAP activity on Gαi1(DM); type: biochemical; conditions: wild-type RGS12 RGS-box GAP activity, Gαi1(DM), read-out: RGS12 pIC50 (converted)
# In short: as §1
IC50 [1] [µM],IC50 [2] [µM],IC50 [3] [µM],Ratio (RGS14 pIC50 / RGS12 pIC50) ([1]; values > 1.0 reflect RGS14 selectivity),IC50 [7] [µM],SMILES,estimated pIC50 RGS12 [4],estimated pIC50RGS14 [5],inhibition of RGS14 RGS-box-mediated acceleration of [γ-33P]GTP hydrolysis [6],cytotoxicity (THP-1 cell line)
63.1,26 to 64,26 to 64,,,"COc1ccc2[nH]c(SC(C)C(=O)c3c(F)cc(F)cc3F)nc2c1 (stereo not shown) [Z1098346112, 2-[(5-methoxy-1H-1,3-benzodiazol-2-yl)sulfanyl]-1-(2,4,6-trifluorophenyl)propan-1-one]",4.4,4.2,,
3.63,,,1.17,21.9,COc1ccc(OCc2nnc3n2N=C(c2cc4ccccc4o2)CS3)cc1 [Z55627844],,,inhibit RGS14 RGS-box-mediated acceleration,without measurable cytotoxicity; also recorded: no overt cytotoxicity
